We go through 15 compounds from patent US12503432B2, “Ionizable lipids for nucleic acid delivery” (Global Life Sciences Solutions Canada ULC, priority 2019, dated 2025).

The pKa is the negative logarithm of the acid dissociation constant.

Series [1] can be described thus: TNS fluorescence assay: experimental pKa of formulated lipid nanoparticles. The series is classed as physicochemical. The following applies: experimental surface pKa of empty LNP, cationic lipid/DSPC/cholesterol/PEG-lipid (50/10/38.5/1.5). How it is done:
The pKa of each cationic lipid was determined in lipid nanoparticles using an assay based on fluorescence of 6-(p-Toluidino)-2-naphthalenesulfonic acid sodium salt (TNS, Sigma Aldrich), which is a fluorescent probe for the conformational state of proteins^5. Empty lipid nanoparticles comprising of cationic lipid/DSPC/cholesterol/PEG-lipid (50/10/38.5/1.5) in distilled water at a concentration of 3.125 mM total lipid are formulated using NanoAssemblr® Spark™, and were then was characterized for LNP quality on the Zetasizer™ using a 30× dilution with 1×PBS in the low volume cuvette. Lipid nanoparticles were further diluted 4× using distilled water to 0.781 mM total lipid. TNS was prepared as a 25 μM stock solution in distilled water. Then 6.4 μL of diluted LNP samples of 0.781 mM total lipid were mixed with 10 μL of diluted TNS to a final volume of 250 μL with buffer containing 10 mM HEPES, 10 mM MES, 10 mM NH4OAc and 130 mM NaCl where the pH ranged from 3 to 9 in 0.5 pH increments.
Samples were mixed thoroughly, and the fluorescence intensity was measured at room temperature in a BioTek™ Synergy™ H1 Hybrid Multi-Mode Monochromator™ Fluorescence Microplate Reader using excitation and emission wavelengths of 321 nm and 445 nm respectively. A sigmoidal best fit analysis was applied to the fluorescence data using GraphPad Prism™ software, and the pKa was measured as the pH at half-maximal fluorescence intensity.

The nature of series [2]: LNP characterization: size and PDI by dynamic light scattering, mRNA encapsulation efficiency by RiboGreen assay. The series is classed as physicochemical. How it is done:
Particle sizes and “polydispersity index” (PDI) of the lipid particle were measured by dynamic light scattering (DLS). PDI indicates the width of the particle distribution. This is a parameter calculated from a cumulative analysis of the (DLS)-measured intensity autocorrelation function assuming a single particle size mode and a single exponential fit to the autocorrelation function. […] The particles produced by mechanical micromixers such as the NanoAssemblr® Spark™ and NanoAssemblr® Benchtop (Precision NanoSystems Inc.) are substantially homogeneous in size assuming all other variables are neutral. A lower PDI indicates a more homogenous population of lipid particles. The Spark™ instrument is used in a screening setting to identify the lead compositions. Once the composition is selected, the lipid particle can be fine-tuned using the NanoAssemblr® Benchtop. Once the process parameters Flow Rate Ratio and Total Flow Rate is identified for the specific nanoparticle composition, the nanoparticle technology can be scaled up using the same process parameter values.
Lipid particles were also manufactured by a larger microfluidic mixer instrument, the NanoAssemblr® Ignite™ for testing. Briefly, 350 μL of mRNA was diluted using 100 mM sodium acetate buffer to the required concentration of 0.2 to 0.3 mg/mL. Lipid particle samples were then prepared by running both fluids, namely, nucleic acids in aqueous solvent and Lipid Mix in ethanol at a flow ratio of 3:1 and at a total flow rate of 12 ml/min in the microfluidic mixer. Following mixing in the microfluidic device, the post cartridge lipid nucleic acid particle sample was diluted into RNAse free tubes containing three to 40 volumes of phosphate buffered saline (PBS), pH 7.4. Ethanol was finally removed through dialysis in PBS, pH 7, or using Amicon™ centrifugal filters (Millipore, USA) at 3000 RPM, or using TFF systems. Once the required concentration was achieved, the lipid nucleic acid particles were filter sterilized using 0.2 μm filters in aseptic conditions. Final encapsulation efficiency was measured by the Ribogreen™ assay. Quant-iT™ RiboGreen® RNA Reagent and Kit (Invitrogen) following manufacturer directions.
Messenger RNA or plasmid nucleic acid therapeutic (NAT) as described below, was diluted using sodium acetate buffer to the required concentration. Lipid nucleic acid particle (LNAP) samples were then prepared by running both fluids using the NanoAssemblr® Spark instrument. Briefly, […] of nucleic acids in 100 mM sodium acetate buffer in a total volume of 32 μL was mixed with 16 μL of 37.5 mM lipid mix solution as required by the N/P ratios (4, 6, or 10 in illustrated examples). The microfluidically mixed lipid nucleic acid particles (LNAP) made in the instrument were immediately diluted down with 48 μL Ca++ and Mg++ free 1× PBS at pH 7.4 in the aqueous output well. These LNAP were immediately collected into microcentrifuge tubes containing 96 μL of the same buffer at pH 7.4. Encapsulation efficiency was measured by a modified Ribogreen™ assay (Quanti-iT RiboGreen™ RNA assay kit, Fisher). This information was used to establish the desired dosage.
After the lipid particles were made as described in Example 17, particle size (hydrodynamic diameter of the particles) was determined by Dynamic Light Scattering (DLS) using a ZetaSizer™ Nano ZS™ (Malvern Instruments, UK). He/Ne laser of 633 nm wavelength was used as the light source. Data were measured from the scattered intensity data conducted in backscattering detection mode (measurement angle=173). Measurements were an average of 10 runs of two cycles each per sample. Z-Average size was reported as the particle size, and is defined as the harmonic intensity averaged particle diameter. These LNP characteristics, as well as the results of the mRNA encapsulation efficiency for various Lipid Mixes are also described in the application are shown in Tables 4, 5 and 6. […]

The subject of the next series is C57BL/6 mice. Nature of the series: In vivo delivery of EPO-encoded mRNA LNP via intravenous route, serum EPO ELISA. On the set-up: key to EPO Protein expression: IV in mice: *: The number of asterix symbols indicates protein expression levels interpreted by the inventors from quantitative data; **: The number of asterix symbols indicates protein expression levels interpreted by the inventors from quantitative data; ***: The number of asterix symbols indicates protein expression levels interpreted by the inventors from quantitative data; ****: The number of asterix symbols indicates protein expression levels interpreted by the inventors from quantitative data; *****: The number of asterix symbols indicates protein expression levels interpreted by the inventors from quantitative data; *******: The number of asterix symbols indicates protein expression levels interpreted by the inventors from quantitative data. The following applies: qualitative grade interpreted from quantitative data. An excerpt: Lipid Nanoparticles with the composition IL/DSPC/Cholesterol/PEG-DMG2000 (LM 02—see Table 3) were used to encapsulate recombinant human erythropoietin (EPO) encoded mRNA with 5-moU modifications [TriLink CleanCapo 5-moU EPO mRNA L7201]. To create the LNP, lipid mix in ethanol was microfluidically mixed with a low PH buffered solution of 5-moU EPO mRNA mixer at an N/P ratio of 6 using a NanoAssemblr® Ignite™ microfluidic mixer. The microfluidically mixed particles were downstream processed using Amicon® ultra 15 10 kDa MWCO units (EMD Millipore) filtration technique. The RNA loaded lipid particles were then characterized for size, PDI and Encapsulation Efficiency (EE). Size and PDI were measured using dynamic light scattering techniques described above, and nucleic acid encapsulation efficiency was calculated using a Quant-iT RiboGreen RNA assay as described supra, modified to use hEPO mNA as the standard instead if the standard RNA in the kit. The hydrodynamic diameter of these mRNA-LNPs was ˜70 nm with a PDI in the range of 0.02 to 0.1 and an encapsulation efficiency of ˜97.8%.
Animals were handled according to the Institutional Animal Care and Use Committee ethics protocols. For experiments, 6-8 week old C57BL/6 mice were purchased from Envigo (South Kent, WA, USA). For in vivo activity, female C57BL/6 mice were treated intravenously with EPO mRNA LNPs at specified dosages of 0.5-3 mg/Kg. Samples of 50-75 μL of blood were collected 6 h post administration via saphenous vein, and at regular time intervals of 24 h or 48 h.
After harvest, blood was immediately prepared to produce serum samples using standard techniques, and stored at −80 degrees C. Briefly, after collection, the blood was allowed to clot at room temperature for 15-30 minutes. The clot was removed by centrifuging the tubes at 1000-2000×g for 10 min at 4 degrees Celsius. The clear golden-yellow color supernatant was carefully removed and transferred to sterile screw-capped clear polypropylene tubes on ice. The serum was then stored, if necessary, at −80° C. until analysis.
Samples were thawed, then analyzed at appropriate dilutions for EPO protein expression and for cytokine/chemokine levels. The total serum EPO levels were evaluated using Quantikine® IVD EPO ELISA kit (Bio-Techne, Minneapolis, MN, USA).
Following i.v administration of a 0.5 mg/Kg dose of recombinant human EPO-encoded mRNA LNPs containing ionizable lipid MC3, PNI 121 or PNI 123 using the LM02 composition at N/P 6, EPO expression levels at 6 h (upper, FIG. 6) and at 24 h (lower, FIG. 6) in C56BL/6 mice were examined; hEPO protein was measured using Quantikine® IVD® ELISA Human Erythropoietin Immunoassay protocol.

Where [3] appears, read: 5-moU EPO encoded LNPs, IL:DSPC:cholesterol:DMG-PEG (50:10:38.5:1.5), N/P 6.
[4] abbreviates: OVA encoded LNPs, payload WT OVA, LM02, N/P 8.
[5] abbreviates: Table 4 LNPs, payload and lipid mix not stated.

As for `CC/C=C\CC1C(CC(=O)OCCC(CCCCCCCC/C=C\C/C=C\CCCCC)OC(=O)C(CCCCCC)CCCCCCCC)CCC1OC(=O)CCCN(C)C` (centres unmarked) [PNI 510], the pKa in series [1] amounted to 6.2.

Regarding `CCCCCCCCCCCCCCOCC(COC(=O)CC1CCC(OC(=O)CCN(C)C)C1CCCCC)OCCCCCCCCCCCCCC` (centres unmarked) [PNI 548], the pKa in series [1] was 5.5.

In the case of `CC/C=C\CC1C(CC(=O)OCCC(CCCCCCCC)OC(=O)C(CCCCCC)CCCCCCCC)CCC1OC(=O)CCCN(C)C` (centres unmarked) [PNI 562], the pKa in series [1] worked out at 6.36.

For `CC/C=C\CC1C(CC(=O)OCC(COCCCCCCCC/C=C\C/C=C\CCCCC)OCCCCCCCC/C=C\C/C=C\CCCCC)CCC1OC(=O)CCN(C)C` (centres unmarked) [PNI 128], in series [2] (setting [3]), the “Diameter (Z. ave, nm)” value is 64.8 nm; the “Encapsulation Efficiency (%)” value was determined as 97.1%; the “Polydispersity Index (PDI)” value stood at 0.04. In series [2] (setting [4]), the “Diameter (Z. ave, nm)” value came to 74.9 nm; the “Encapsulation Efficiency (%)” value was found to be 97.0%; the “Polydispersity Index (PDI)” value was found to be 0.02. Besides, in series [2] (setting [5]), the “Diameter (Z. ave, nm)” value was found to be 61.7 nm; the “Encapsulation Efficiency (%)” value is 88.2%; the “Polydispersity Index (PDI)” value came out at 0.09. Besides, the “EPO Protein expression: IV in mice” value with C57BL/6 mice is “****”. In addition, in series [1], the pKa was found to be 5.56.

With `CC/C=C\CC1C(CC(=O)OCC(COC(=O)CCCCCCC/C=C\C/C=C\CCCCC)OC(=O)CCCCCCC/C=C\C/C=C\CCCCC)CCC1OC(=O)CCCN(C)C` (centres unmarked) [PNI 269], the pKa in series [1] is 6.28.

As for `CC/C=C\CC1C(CC(=O)OCCC(CCCCCCCC/C=C\C/C=C\CCCCC)OC(=O)C(CCCCCC)CCCCCCCC)CCC1OC(=O)C1(C)CCN(C)CC1` (centres unmarked) [PNI 563], the pKa in series [1] turned out to be 5.96.

As to `CC/C=C\CC1C(CC(=O)OCC(COCCCCCCCC/C=C\C/C=C\CCCCC)OCCCCCCCC/C=C\C/C=C\CCCCC)CCC1OC(=O)C1CCN(C)C1` (centres unmarked) [PNI 135], in series [1], the pKa came out at 5.48.

`CC/C=C\CC1C(CC(=O)OCC(COCCCCCCCCCCCCCC)OCCCCCCCCCCCCCC)CCC1OC(=O)CCN(C)C` (centres unmarked) [PNI 547]: the pKa in series [1] is 5.95.

In the case of `CC/C=C\CC1C(CC(=O)OCC(COC(=O)CCCCCCCC2CC2CCCCCCCC)OC(=O)CCCCCCCC2CC2CCCCCCCC)CCC1OC(=O)CCN(C)C` (centres unmarked) [PNI 551], the pKa in series [1] came to 5.5.

As to `CC/C=C\CC1C(CC(=O)OCC(COCCCCCCCC/C=C\C/C=C\CCCCC)OCCCCCCCC/C=C\C/C=C\CCCCC)CCC1OC(=O)Cc1cn(C)cn1` (centres unmarked) [PNI 143], in series [2] (setting [3]), the “Diameter (Z. ave, nm)” value was 88.0 nm; the “Encapsulation Efficiency (%)” value is 98.7%; the “Polydispersity Index (PDI)” value was 0.87. The pKa in series [1] turned out to be 4.31.

On to `CC/C=C\CC1C(CC(=O)OCC(COC(=O)CCCCCCCC2CC2CCCCCCCC)OC(=O)CCCCCCCC2CC2CCCCCCCC)CCC1OC(=O)CCCN(C)C` (centres unmarked) [PNI 515], for which the pKa in series [1] was 6.27.

As to `CC/C=C\CC1C(CC(=O)OCCC(CCCCCCCC/C=C\C/C=C\CCCCC)OC(=O)C(CCCCCC)CCCCCCCC)CCC1OC(=O)CCN(C)C` (centres unmarked) [PNI 552], the pKa in series [1] worked out at 5.42.

As for `CC/C=C\CC1C(CC(=O)OCC(COCCCCCCCC/C=C\C/C=C\CCCCC)OCCCCCCCC/C=C\C/C=C\CCCCC)CCC1OC(=O)CN1CCN(C)CC1` (centres unmarked) [PNI 567], the pKa in series [1] amounted to 6.23.

As to `CCCCC/C=C\C/C=C\CCCCCCCCOCC(COC(=O)CC1CCC(OC(=O)CCCN(C)C)C1)OCCCCCCCC/C=C\C/C=C\CCCCC` (centres unmarked) [PNI 148], the pKa in series [1] worked out at 6.77.

As for `CC/C=C\CC1C(CC(=O)OCC(COCCCCCCCCC2CC2CCCCCCCC)OCCCCCCCCC2CC2CCCCCCCC)CCC1OC(=O)CCCN(C)C` (centres unmarked) [PNI 543], in series [2] (setting [3]), the “Diameter (Z. ave, nm)” value stood at 73.6 nm; the “Encapsulation Efficiency (%)” value is 98.7%; the “Polydispersity Index (PDI)” value came to 0.14. In addition, the “EPO Protein expression: IV in mice” value in the series on C57BL/6 mice is “***”. The pKa in series [1] was 6.31.
